Source: ChEMBL document CHEMBL3856192, “Aroylhydrazone iron chelators: Tuning antioxidant and antiproliferative properties by hydrazide modifications” (Eur J Med Chem, 2016)

Columns and labels:
[1] = Iron chelating activity assessed as Fe2+-compound complex formation at 5 uM measured for 360 secs by calcein based fluorescence assay relative to salicylaldehyde isonicotinoyl hydrazone; type: physicochemical; conditions: 0.1 h
MCF7 [2] = assay: Induction of transferrin labeled 59Fe mobilization in human MCF7 cells assessed as cellular 59Fe released at 25 uM after 3 hrs by gamma scintillation counting analysis (reference value: 11%); type: functional
MCF7 [3] = assay: Inhibition of 59Fe uptake in human MCF7 cells labeled with 59Fe transferrin at 25 uM after 3 hrs relative to control; type: functional; conditions: MCF7, 3 h
[4] = Cytotoxicity against rat H9c2 cells assessed as decrease in cell viability after 72 hrs by neutral red staining based assay; type: toxicity
[5] = Cytotoxicity against human MCF7 cells assessed as decrease in cell viability after 72 hrs by neutral red staining based assay; type: functional; conditions: MCF7, 72 h
[6] = Cytotoxicity against human HL60 cells assessed as decrease in cell viability after 72 hrs by MTT assay; type: functional, cell-based; conditions: HL-60, 72 h
H9c2 [7] = assay: Selectivity index, ratio of IC50 for rat H9c2 cells to IC50 for human MCF7 cells; type: functional
H9c2 [8] = assay: Selectivity index, ratio of IC50 for rat H9c2 cells to IC50 for human HL60 cells; type: functional
[9] = Stability in rabbit plasma assessed as parent compound remaining at 100 uM after 10 hrs by HPLC analysis; type: ADME, cell-free, Oryctolagus cuniculus; conditions: read-out: Stability
[10] = Iron chelating activity assessed as Fe3+-compound complex-induced antioxidant activity by measuring ascorbate oxidation level at iron binding equivalent of 3 measured after 10 to 40 mins in presence of 500 uM of citrate relative to control; type: physicochemical
H9c2 [11] = assay: Protection against H202-induced oxidative injury in rat H9c2 cells assessed as increase in cell viability after 24 hrs by neutral red staining based assay; type: functional; conditions: H9c2, 24 h
H9c2 [12] = assay: Protection against t-BHP-induced oxidative injury in rat H9c2 cells assessed as increase in cell viability incubated for 10 mins followed by stimulation with t-BHP for 24 hrs by neutral red staining based assay; type: functional
[13] = Antiproliferative activity against human SK-N-MC cells after 22 to 72 hrs by MTT assay; type: functional, cell-based
[14] = Antiproliferative activity against rat L8 cells after 22 to 72 hrs by MTT assay; type: cell-based
[15] = Antiproliferative activity against HUVEC after 22 to 72 hrs by MTT assay; type: cell-based; conditions: Homo sapiens
SK-N-MC = assay: Selectivity index, ratio of IC50 for HUVEC to IC50 for human SK-N-MC cells
[16] = Selectivity index, ratio of IC50 for rat L8 cells to IC50 for human SK-N-MC cells; type: functional
[17] = Drug uptake in human SK-N-MC cells by beta scintillation counting analysis; type: ADME, cell-based
[18] = Iron chelating activity assessed as Fe3+-compound complex-induced antioxidant activity by measuring decrease in ascorbate oxidation level at iron binding equivalent of 3 measured after 10 to 40 mins in presence of 100 uM of citrate relative to control; type: physicochemical
H9c2 [19] = assay: Selectivity index, ratio of IC50 for rat H9c2 cells to EC50 for rat H9c2 cells; type: functional
[20] = Iron chelating activity assessed as Fe3+-compound complex-induced antioxidant activity by measuring ascorbate oxidation level at iron binding equivalent of 0.1 measured after 10 to 40 mins in presence of 500 uM of citrate relative to control; type: physicochemical

Structure (SMILES)	Activity [1] [%]	Activity (MCF7 [2])	inhibition at 25 µM (MCF7 [3]) [%]	IC50 at 72 h [4] [µM]	IC50 [5] [µM]	IC50 [6] [µM]	Ratio IC50 (H9c2 [7])	Ratio IC50 (H9c2 [8])	remaining at 10 h, 100 µM [9] [%]	Activity [10] [%]	also measured
CC/C(=N\NC(=O)c1ccc(-c2ccccc2)cc1)c1ccccc1O	84 to 109	51%	17 to 61	> 100	1.3	1.3	>78	>78	41	–	–
C/C(=N\NC(=O)c1cnccn1)c1ccccc1O	97 to 107	42%	17 to 61	41.2	22.4	22.3	1.8	1.9	–	10 to 44	–
C/C(=N\NC(=O)c1cccnc1)c1ccccc1O	97 to 107	54 - 57%	17 to 61	6.8	8.3	7.5	0.8	0.9	–	10 to 44	–
CC/C(=N\NC(=O)c1cccnc1)c1ccccc1O	84 to 109	50 - 56%	17 to 61	7.1	5	4.9	1.4	1.5	–	10 to 44	EC50 (H9c2 [11]): 30 µM
C/C(=N\NC(=O)c1ccncc1)c1ccccc1O	–	–	–	12.6	–	–	–	–	26	–	EC50 (H9c2 [12]): 11.4 µM
O=C(N/N=C/c1ccccc1O)c1ccncc1 [SALINAZID]	–	58%	15	28.9	12.4	5.7	2.3	5.1	–	7	EC50 (H9c2 [12]): 18.2 µM
C/C(=N\NC(=O)c1ccnnc1)c1ccccc1O	97 to 107	54 - 57%	17 to 61	22.8	7.6	6.4	3	3.6	–	10 to 44	EC50 (H9c2 [11]): 55.3 µM
O=C(N/N=C/c1c(O)ccc2ccccc12)c1ccncc1	–	–	–	–	–	–	–	–	–	–	IC50 [13]: 0.5 µM; IC50 [14]: 5.4 µM; IC50 [15]: 20.1 µM; Ratio IC50 (SK-N-MC): 40; Ratio IC50 [16]: 11
C/C(=N\NC(=O)c1ccc(-c2ccccc2)cc1)c1ccccc1O	7	41%	17 to 61	> 100	4.6	2.7	>22	>37	90	–	–
CN(C)C(=S)NN=[14C](c1ccccn1)c1ccccn1	–	–	–	–	–	–	–	–	–	–	Kd [17]: 2.45 µM
C/C(=N\NC(=O)c1cccc2ccccc12)c1ccccc1O	79	54 - 57%	17 to 61	> 200	3.8	3.9	>52	>52	95	–	–
CC/C(=N\NC(=O)c1ccnnc1)c1ccccc1O	84 to 109	50 - 56%	17 to 61	> 200	14.9	9.1	>13	>21	85	10 to 44	Activity [18]: Active; EC50 (H9c2 [11]): 25 µM; Ratio IC50/EC50 (H9c2 [19]): 8
CC/C(=N\NC(=O)c1ccncc1)c1ccccc1O	–	–	–	–	34.7	–	–	–	41	–	EC50 (H9c2 [12]): 17.8 µM
CC(=O)N(O)CCCCCNC(=O)CCC(=O)N(O)CCCCCNC(=O)CCC(=O)N(O)CCCCCN [DEFEROXAMINE]	–	–	–	–	–	–	–	–	–	16	Activity [20]: 93%
CC/C(=N\NC(=O)c1cccc2ccccc12)c1ccccc1O	84 to 109	50 - 56%	17 to 61	> 200	3.5	3.5	>57	>57	76	–	–
CC/C(=N\NC(=O)c1cnccn1)c1ccccc1O	84 to 109	50%	17 to 61	> 100	27.3	27	>4	>4	–	10 to 44	–
